Results on one compound are retold here after patent US12121510B2 (Cedars-Sinai Medical Center, priority 2016, dated 2024).

The test system of one series is 95C. The series can be described thus: Cell proliferation IC50, Crystal Violet assay. The format is cell-based, human. Conditions: 95C (Non-Met); 72 h; single agent; mean ± SEM. From the text: (§1) Exemplary Embodiments are generally performed as follows, unless otherwise noted. Simvastatin is purchased from Ark Pharm, Inc. (Arlington Heights, IL). Cisplatin (CIS) is purchased from MedKoo Biosciences, Inc. (Chapel Hill, NC). Dihydroartemisinin is purchased from TCI America (Portland, OR). All other chemicals and reagents are purchased from standard sources such as Sigma-Aldrich and/or VWR and are of highest quality available. Puromycin dihydrochloride was purchased from Alfa Aesar (Tewksbury, MA). Deionized water ([…]) used for making solutions is obtained from Milli-Q Direct Ultrapure Water System from Millipore (Billerica, MA, USA). All intermediates are characterized by 1H NMR and mass analysis and the purity of compounds are analyzed by HPLC. 1H NMR data are collected on Bruker 400 MHz spectrometers using standard parameters; chemical shifts are reported in ppm (δ) in reference to residual non-deuterated solvent. ESI mass spectroscopy analysis is performed using a Thermo Fisher LTQ Orbitrap Elite system. IC50 is the half maximal inhibitory concentration and determined is determined by crystal violet assay unless otherwise noted.
(§2) H446 is a SCLC cell line. […] Drugs tested and compared include CIS and DZ-CIS ester. Each drug is used as single agent.

Another series deals with 95D. As to the kind of experiment: Cell proliferation IC50, Crystal Violet assay. The format is cell-based, human. Conditions: 95D (Met); 72 h; single agent; mean ± SEM.
Text: as §1, §2

A further series concerns H446. As to the kind of experiment: Cell proliferation IC50, Crystal Violet assay. Type of series: cell-based, human. The conditions noted are these: SCLC H446; 72 h; single agent; mean ± SEM.
Text: as §1, §2

A further series deals with YTMLC. As to the kind of experiment: Cell proliferation IC50, Crystal Violet assay. The format is cell-based, human. Conditions: 72 h, single agent, mean ± SEM.
Text: as §1, §2

Another series has as its system Daudi. The series can be described thus: Lymphoma cell growth IC50 (MTT). The format is cell-based, human.
Another series deals with Namalwa. As to the kind of experiment: Lymphoma cell growth IC50 (MTT). The format is cell-based, human.
For a further series, the system named is ACHN. As to the kind of experiment: Renal cancer cell growth IC50 (crystal violet). The format is cell-based, human.
Text: as §1
(§3) The crystal violet assay is performed as follows, unless otherwise noted. Cell lines are supplemented with RPMI 1640 medium, 10% fetal bovine serum, 1% PenStrep, and placed in a humidified atmosphere containing 5% CO2 at 37° C. 5,000 cells/well renal cancer cells and 10,000 cells/well lymphoma cells are seeded in 96 well plates in 100 microliter medium/per well for 24 h. […] Renal cancer cells are fixed with 3.7% paraformaldehyde for 15 minutes and are stained with Crystal violet solution (0.5% in 25% methanol) for 30 minutes. After rinsing with water cell layers are dried and decolorized with Sorenson citrate with shaking for 20 minutes. Light absorption of the extracted supernatant is read at 595 nm. Lymphoma cell growth was evaluated using MTT and cells are incubated for 4 hours. 100 microliters of isopropanol is added, and the extracted supernatant fraction is read at absorption maximum of 595 nm.
(§4) Standard cell culture conditions typically are RPMI 1640 medium, 10% fetal bovine serum, 1% PenStrep, and are performed in a humidified atmosphere containing 5% CO2 at 37° C. Generally, 5,000 cells/well-10,000 cells/well are seeded in 96 well plates in 100 microliter medium/per well for 24 h, or as described in Example 16, unless otherwise noted. Certain cells require specialized media, growth factors, antibiotics, or culture condition adjustments, as will be apparent to a person of ordinary skill in the art.
as §3, with “Cell” for “The crystal violet assay is performed as follows, unless otherwise noted. Cell”, “cultured as follows. […]” for “supplemented with RPMI 1640 medium, 10% fetal bovine serum, 1% PenStrep, and placed in a humidified atmosphere containing 5% CO2 at 37° C.”, “is” for “was”

The subject of the next series is Caki-1. As to the kind of experiment: Renal cancer cell growth IC50 (crystal violet). Type of series: cell-based, human. Conditions: Caki-1.
Text: as §1, §3, §4
as §3, with “Cell” for “The crystal violet assay is performed as follows, unless otherwise noted. Cell”, “cultured as follows. […]” for “supplemented with RPMI 1640 medium, 10% fetal bovine serum, 1% PenStrep, and placed in a humidified atmosphere containing 5% CO2 at 37° C.”, “is” for “was”

For another series, the system named is SKRC. As to the kind of experiment: Renal cancer cell growth IC50 (crystal violet). Type of series: cell-based, human.
Text: as §1, §3, §4
as §3, with “Cell” for “The crystal violet assay is performed as follows, unless otherwise noted. Cell”, “cultured as follows. […]” for “supplemented with RPMI 1640 medium, 10% fetal bovine serum, 1% PenStrep, and placed in a humidified atmosphere containing 5% CO2 at 37° C.”, “is” for “was”

The test system of a further series is o-786. As to the kind of experiment: Renal cancer cell growth IC50 (crystal violet). The format is cell-based, human.
Text: as §1, §3, §4
as §3, with “Cell” for “The crystal violet assay is performed as follows, unless otherwise noted. Cell”, “cultured as follows. […]” for “supplemented with RPMI 1640 medium, 10% fetal bovine serum, 1% PenStrep, and placed in a humidified atmosphere containing 5% CO2 at 37° C.”, “is” for “was”

The subject of series [1] is Ramos, a B-cell lymphoma, cultured as 3-D spheroids. The series can be described thus: Cell viability IC50 in 3-D spheroids. Type of series: cell-based, human. Conditions: Ramos 3-D spheroids; 72 h; single agent.
Text: as §1
Cancer cells were Ramos, a B-cell lymphoma, cultured as 3-D spheroids, cultured according to their standard culturing conditions.

Series [2] deals with human kidney carcinoma cell lines (ACHN, Caki-1, 0-786, SKRC). As to the kind of experiment: Growth IC50 in kidney carcinoma cell line panel. The format is cell-based. Conditions: all kidney cancer cell lines; 72 hours; read-out: IC50 across kidney cancer cell lines. The method, then: as §3
The significance for all results was p<0.0001.

Series [3] relates to renal cancer and B-cell lymphoma cell lines. The series can be described thus: Growth IC50 in renal cancer and B-cell lymphoma panel. The format is cell-based, human. The conditions noted are these: all cancer cell lines of Example 16; 72 h; read-out: IC50 across renal cancer and B-cell lymphoma cell lines. How it is done:
as §3, with “Cell” for “The crystal violet assay is performed as follows, unless otherwise noted. Cell”, “cultured as follows. […]” for “supplemented with RPMI 1640 medium, 10% fetal bovine serum, 1% PenStrep, and placed in a humidified atmosphere containing 5% CO2 at 37° C.”, “is” for “was”

In another series the test system is Namalwa xenograft tumors. As to the kind of experiment: Burkitt lymphoma xenograft tumor growth. The format is in vivo. The conditions noted are these: Example 5; NCr Nu/Nu (10 μM) and NOD-SCID (5 μM) mice; 2 times a week; versus CIS or vehicle, p<0.05. How it is done: Representative results are illustrated in FIG. 5. DZ-CIS is administered to tumors as follows. 15 mice each (NCr Nu/Nu, right panel of FIG. 5, and NOD-SCID, left panel) are injected with Human Burkitt lymphoma cell line, Namalwa cells (10^3), producing 4 xenograft tumors per mouse.

Series [4] concerns normal mouse kidney and liver. As to the kind of experiment: Immunohistochemical staining of normal kidney and liver. Conditions: mice harbored with human Burkitt's lymphoma. Type of series: in vivo. From the text: These normal kidney and liver tissues were obtained from mice harbored with human Burkitt's lymphoma.
[5] abbreviates: 72 hours, read-out: Half maximal inhibitory concentration (IC50).

Read-outs that look alike come from different tables or passages of the source.

On to `N.N.[Cl][Pt][Cl]` [CIS, cis-diamminedichloridoplatinum (II)], for which the IC50 was 12.7 ± 1 µM with 95C; > 100 µM in the series on 95D; 107.3 ± 1 µM in the series with H446; 16.2 ± 1 µM with YTMLC; > 64 µM in the series on Daudi (setting [5]); > 64 µM in the series with Daudi (Example 15, read-out: IC50). In addition, the IC50 was > 64 µM in the series on Namalwa (setting [5]); > 64 µM in the series on Namalwa (Example 15, read-out: IC50); > 64 µM in the series with ACHN (setting [5]); > 64 µM in the series with ACHN (Example 15, read-out: IC50); > 64 µM in the series on Caki-1 (setting [5]); > 64 µM in the series with Caki-1 (Example 15, read-out: IC50). Further, the IC50 was > 64 µM in the series on SKRC (setting [5]); > 64 µM with SKRC (Example 15, read-out: IC50); > 64 µM in the series with o-786 (Example 15, O-786, read-out: IC50); > 64 µM with o-786 (o-786, 72 hours, read-out: Half maximal inhibitory concentration (IC50)); 81.5 µM in series [1]; > 64 µM in series [2]. Besides, the IC50 in [3] is > 64 µM. Also, the “Tumor volume, Namalwa xenograft” value in the series with Namalwa xenograft tumors was “not CIS alone”. The “Apoptosis markers (cleaved caspas-3 and M30) / damage in normal kidney and liver” value in series [4] is recorded as “elevated”.
